Experimental data taken from patent publication US20240383881A1, “SYNTHETIC COMPOUND OF MYRICETIN AND NOBILETIN, AND PREPARATION METHOD THEREFOR” (The Second People's Hospital of Shenzhen (Shenzhen …, priority 2023, published 2024).

How the values were obtained:
mice with hyperuricemia = test: yeast extract feed-induced hyperuricemia model in KM mice; format: in vivo, KunMing (KM) mice; settings: 30 mg/kg intragastric daily for 9 weeks; for serum UA levels vs model group: P<0.001, P<0.001, P<0.01; for serum creatinine level vs model group / serum urea nitrogen level vs model group: P<0.001; for serum urea nitrogen level vs model group: FIG. 2B; for liver index vs model group: FIG. 3B, P<0.001, P<0.05, P<0.01; for renal pathological morphology (HE staining): renal tissue, x200; for kidney index vs model group: FIG. 3A, P<0.05 (synthetic compound), P<0.001 (nobiletin)
Method: Specific pathogen free (SPF) grade KunMing (KM) mice, male, aged 5-6 weeks, weighing 22-25 g, are provided by Medical Experimental Animal Center of Guangdong Province with an animal qualification certificate number: SCXK (Yue) 2022-0002. The mice are raised in plastic cages, with free diet and drinking water. The indoor temperature of the plastic cages is (22±2)° C., and a relative humidity is maintained at 55%±5%. The lights are turned on and turned off for 12 hours, respectively. After quarantine and adaptation for one week, relevant experiments are conducted. The experimental plan is reviewed and approved by the Animal Welfare Ethics Committee of Zhongke Industry Holdings (Shenzhen) Co., Ltd. (application number: 20220082), and the operation and process of animal experiments follow the “Guidelines for the use of experimental animals in teaching” of the Chinese Society of Experimental Animals. Customized dietary feeds: 15% of yeast extract feeds, in compliance with regulations of GB13078 and GB14924.2, are provided by Jiangsu Synergy Pharmaceutical Biotechnology Co., Ltd. Production license: Su Si Zheng (2019) 01008. After 2 weeks of adaptive feeding in the plastic cages, the SPF grade KM mice are randomly divided into five groups: normal group (Control), model group (Model), synthetic compound group (PJW), myricetin group (Myricetin), and nobiletin group (Nobiletin). The dosage of each individual test medicine group is 30 milligrams per kilogram (mg/kg), and the medicines are dissolved in a 0.5% carboxymethyl cellulose sodium solution with a gavage volume of 10 milliliters per kilogram (mL/kg). Except for the normal group fed with basic feed, the other groups are fed with 15% of the yeast extract feeds for modeling. The normal group and the model group are intragastrically administered an equal amount of physiological saline daily, and the other groups are intragastrically administered with the corresponding medicine daily for 9 weeks. At the end of the experiment, that is, at the end of the 9th week of administration, the KM mice are fasted for 12 hours, then the KM mice are anesthetized with the isoflurane to take off the eyeballs from the KM mice for blood collection, followed by placing the collected blood to stand in the room temperature for 1 hour. After the standing, the blood is centrifuged at 3500 revolutions per minute (rpm/min) for 15 minutes to obtain centrifuged solutions, respectively, then serums of the centrifuged solution are separated to detect the levels of the uric acid, the creatinine, the urea nitrogen. The KM mice are sacrificed by dislocation of cervical vertebra after collecting blood, livers and kidneys are dissected from the KM mice and weighed to calculate indexes of the livers and the kidneys, an organ index of the formula is as follows: organ index=organ weight (g)/body mass (g)×100%. Then the livers and the kidneys are quickly packed, one portion of the packed sample is fixed with 4% paraformaldehyde solution for HE staining, and the other portion of the packed sample is stored at −80° C. in a refrigerator for later use. The renal tissues fixed with 4% paraformaldehyde from the kidneys are taken to be dehydrated with ethanol, embedded in paraffin, and sliced. After staining with hematoxylin-eosin, the pathological changes of renal tissues are observed under an upright optical microscope. All data are statistically analyzed using a GraphPad Prism 7.00 software, and the data are presented as a mean value±a standard error (standard deviation±standard error of the mean abbreviated as SD±SEM). Multiple group comparisons are conducted using a one-way Analysis of Variance (ANOVA), and pairwise comparisons between groups are conducted using a Dunnett's test. P<0.05 indicates a statistically significant difference.

[1] = patients with hyperuricemia; Wang Yong et al. 2010; cited from earlier work
[2] = target: T1, organic anion transporter 4 (OAT4) (Homo sapiens, UniProt Q9NSA0); settings: OAT4 overexpressed monoclonal cell line; Wang Ze et al. 2019; read-out: half-maximal inhibitory concentration (IC50) on OAT4; cited from earlier work
T1 sequence (Q9NSA0 1-550): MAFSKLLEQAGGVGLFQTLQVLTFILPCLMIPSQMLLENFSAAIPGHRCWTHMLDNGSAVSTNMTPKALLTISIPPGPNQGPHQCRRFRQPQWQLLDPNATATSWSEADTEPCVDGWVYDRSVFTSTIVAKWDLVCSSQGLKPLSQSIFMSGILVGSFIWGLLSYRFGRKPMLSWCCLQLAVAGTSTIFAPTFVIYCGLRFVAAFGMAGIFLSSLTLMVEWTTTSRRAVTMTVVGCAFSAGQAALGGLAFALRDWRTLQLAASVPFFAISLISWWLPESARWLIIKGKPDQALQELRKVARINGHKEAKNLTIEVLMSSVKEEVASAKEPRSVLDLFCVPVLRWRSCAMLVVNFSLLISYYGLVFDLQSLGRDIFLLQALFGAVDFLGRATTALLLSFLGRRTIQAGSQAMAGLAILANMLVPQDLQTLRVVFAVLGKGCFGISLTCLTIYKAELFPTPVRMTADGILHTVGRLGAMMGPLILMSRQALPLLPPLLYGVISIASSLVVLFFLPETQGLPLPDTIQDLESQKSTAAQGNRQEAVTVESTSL

SMILES	serum UA levels vs model group (mice with hyperuricemia; FIG. 1)	serum creatinine level vs model group (mice with hyperuricemia; FIG. 2A)	serum urea nitrogen level vs model group (mice with hyperuricemia)	liver index vs model group (mice with hyperuricemia)	renal pathological morphology (HE staining) (mice with hyperuricemia; FIG. 4)	serum uric acid (UA) levels in patients [1]	kidney index vs model group (mice with hyperuricemia)	IC50 [2] [nM]	serum UA effect compared with monomer groups (mice with hyperuricemia; FIG. 1)	effect on creatinine compared with monomer medicines (mice with hyperuricemia; FIG. 2A)	organ index effect compared with monomer groups (mice with hyperuricemia; FIGS. 3A-3B)	improvement of renal pathological morphology compared with monomer medicines (mice with hyperuricemia; HE staining, FIG. 4)
O=c1c(O)c(-c2cc(O)c(O)c(O)c2)oc2cc(O)cc(O)c12 [myricetin]	significantly reduced	significantly reduced	significantly reduced	significantly reduced	improve renal injury	significantly reduce	–	–	–	–	–	–
COc1ccc(-c2cc(=O)c3c(OC)c(OC)c(OC)c(OC)c3o2)cc1OC [nobiletin]	significantly reduced	significantly reduced	significantly reduced	significantly reduced	improve renal injury	–	significantly reduced	556	–	–	–	–
COc1cc(OC)c2c(=O)c(OCCCC(=O)Oc3c(-c4ccc(OC)c(OC)c4)oc4c(OC)c(OC)c(OC)c(OC)c4c3=O)c(-c3cc(OC)c(OC)c(OC)c3)oc2c1 [synthetic compound]	significantly reduced	significantly reduced	significantly reduced	significantly reduced	improve renal injury	–	significantly reduced	–	better than that of each monomer group	better than that of monomer medicines	better than that of each monomer group	better than that of monomer medicines
